Reference: article PMC5474674, “D-BMAP18 Antimicrobial Peptide Is Active In vitro, Resists to Pulmonary Proteases but Loses Its Activity in a Murine Model of Pseudomonas aeruginosa Lung Infection” (Frontiers in Chemistry, 2017)
Values after ≈ are worked out from the molar mass of the structure shown. Where a SMILES comes first, the peptide text is derived from it. [ ]: non-standard residue; d: D form.

How the values were obtained:
P. aeruginosa PA01 = test: MIC/MBC broth microdilution; format: cell-based, Pseudomonas aeruginosa; conditions: D-BMAP18, strain PA01, n = 6
Experimental: (§1) MIC values were determined using the broth microdilution method.

P. aeruginosa PA03 = test: MIC/MBC broth microdilution; format: cell-based, Pseudomonas aeruginosa; conditions: D-BMAP18, strain PA03, n = 6
Experimental: as §1

P. aeruginosa PA07 = test: MIC/MBC broth microdilution; format: cell-based, Pseudomonas aeruginosa; conditions: D-BMAP18, strain PA07, n = 6
Experimental: as §1

P. aeruginosa PA08 = test: MIC/MBC broth microdilution; format: cell-based, Pseudomonas aeruginosa; conditions: D-BMAP18, strain PA08, n = 6
Experimental: as §1

P. aeruginosa PA09 = test: MIC/MBC broth microdilution; format: cell-based, Pseudomonas aeruginosa; conditions: D-BMAP18, strain PA09, n = 6
Experimental: as §1

P. aeruginosa PA10 = test: MIC/MBC broth microdilution; format: cell-based, Pseudomonas aeruginosa; conditions: D-BMAP18, strain PA10, n = 6
Experimental: as §1

P. aeruginosa PA14 = test: MIC/MBC broth microdilution; format: cell-based, Pseudomonas aeruginosa; conditions: D-BMAP18, strain PA14, n = 6
Experimental: as §1

P. aeruginosa PA21 = test: MIC/MBC broth microdilution; format: cell-based, Pseudomonas aeruginosa; conditions: D-BMAP18, strain PA21, n = 6
Experimental: as §1

P. aeruginosa PA22 = test: MIC/MBC broth microdilution; format: cell-based, Pseudomonas aeruginosa; conditions: D-BMAP18, strain PA22, n = 6
Experimental: as §1

P. aeruginosa PA31 = test: MIC/MBC broth microdilution; format: cell-based, Pseudomonas aeruginosa; conditions: D-BMAP18, strain PA31, n = 6
Experimental: as §1

P. aeruginosa RP73 = test: MIC/MBC broth microdilution; format: cell-based, Pseudomonas aeruginosa; conditions: D-BMAP18, strain RP73, n = 6
Experimental: as §1

S. maltophilia SM103 = test: MIC/MBC broth microdilution; format: cell-based, Stenotrophomonas maltophilia; conditions: D-BMAP18, strain SM103, n = 6
Experimental: as §1

S. maltophilia SM105 = test: MIC/MBC broth microdilution; format: cell-based, Stenotrophomonas maltophilia; conditions: D-BMAP18, strain SM105, n = 6
Experimental: as §1

S. maltophilia SM106 = test: MIC/MBC broth microdilution; format: cell-based, Stenotrophomonas maltophilia; conditions: D-BMAP18, strain SM106, n = 6
Experimental: as §1

S. maltophilia SM110 = test: MIC/MBC broth microdilution; format: cell-based, Stenotrophomonas maltophilia; conditions: D-BMAP18, strain SM110, n = 6
Experimental: as §1

S. maltophilia SM120 = test: MIC/MBC broth microdilution; format: cell-based, Stenotrophomonas maltophilia; conditions: D-BMAP18, strain SM120, n = 6
Experimental: as §1

S. maltophilia SM122 = test: MIC/MBC broth microdilution; format: cell-based, Stenotrophomonas maltophilia; conditions: D-BMAP18, strain SM122, n = 6
Experimental: as §1

S. maltophilia SM123 = test: MIC/MBC broth microdilution; format: cell-based, Stenotrophomonas maltophilia; conditions: D-BMAP18, strain SM123, n = 6
Experimental: as §1

S. maltophilia SM126 = test: MIC/MBC broth microdilution; format: cell-based, Stenotrophomonas maltophilia; conditions: D-BMAP18, strain SM126, n = 6
Experimental: as §1

S. maltophilia SM130 = test: MIC/MBC broth microdilution; format: cell-based, Stenotrophomonas maltophilia; conditions: D-BMAP18, strain SM130, n = 6
Experimental: as §1

S. maltophilia SM136 = test: MIC/MBC broth microdilution; format: cell-based, Stenotrophomonas maltophilia; conditions: D-BMAP18, strain SM136, n = 6
Experimental: as §1

S. maltophilia SM139 = test: MIC/MBC broth microdilution; format: cell-based, Stenotrophomonas maltophilia; conditions: D-BMAP18, strain SM139, n = 6
Experimental: as §1

S. maltophilia SM143 = test: MIC/MBC broth microdilution; format: cell-based, Stenotrophomonas maltophilia; conditions: D-BMAP18, strain SM143, n = 6
Experimental: as §1

P. aeruginosa = format: cell-based, Pseudomonas aeruginosa; conditions: 24 h
Experimental: (§2) P. aeruginosa, S. maltophilia, and Staphylococcus aureus strains were originally isolated from respiratory specimens of CF patients admitted to the “Bambino Gesù” Children Hospital in Rome and previously tested with AMPs (Pompilio et al., [2012]). P. aeruginosa RP73, and PAO1 were tested as reference strains.
as §1

S. maltophilia = format: cell-based, Stenotrophomonas maltophilia; conditions: 24 h
Experimental: as §2, §1

[1] = broth microdilution, MH broth, 37°C 24 h
[2] = kills at least 99.9% of inoculum

For CC(C)C[C@@H](NC(=O)[C@@H](CCCCN)NC(=O)[C@@H](CCCCN)NC(=O)[C@@H](Cc1ccccc1)NC(=O)[C@@H](CC(C)C)NC(=O)[C@@H](CCCCN)NC(=O)[C@@H](CCCCN)NC(=O)[C@@H](Cc1ccccc1)NC(=O)[C@@H](CCCCN)NC(=O)[C@@H](CCCCN)NC(=O)[C@@H](CCCNC(=N)N)NC(=O)[C@@H](Cc1ccccc1)NC(=O)[C@@H](CCCNC(=N)N)NC(=O)[C@@H](CCCCN)NC(=O)[C@@H](Cc1ccccc1)NC(=O)[C@@H](CCCNC(=N)N)NC(=O)CN)C(=O)N[C@H](CO)C(N)=O [D-BMAP18] (H-G[dR][dF][dK][dR][dF][dR][dK][dK][dF][dK][dK][dL][dF][dK][dK][dL][dS]-NH2), the MIC (P. aeruginosa PA01; [1]) was 8 µg/mL (≈ 3.42 µM), the MBC (P. aeruginosa PA01; [2]) was 32 µg/mL (≈ 13.7 µM) and the MIC (P. aeruginosa PA03; [1]) was 8 µg/mL (≈ 3.42 µM). The MBC (P. aeruginosa PA03; [2]) was 8 µg/mL (≈ 3.42 µM), the MIC (P. aeruginosa PA07; [1]) was 8 µg/mL (≈ 3.42 µM) and the MBC (P. aeruginosa PA07; [2]) was 8 µg/mL (≈ 3.42 µM). For the same compound, the MIC (P. aeruginosa PA08; [1]) was 8 µg/mL (≈ 3.42 µM), the MBC (P. aeruginosa PA08; [2]) was 16 µg/mL (≈ 6.83 µM) and the MIC (P. aeruginosa PA09; [1]) was 16 µg/mL (≈ 6.83 µM). For the same compound, the MBC (P. aeruginosa PA09; [2]) was 32 µg/mL (≈ 13.7 µM), the MIC (P. aeruginosa PA10; [1]) was 16 µg/mL (≈ 6.83 µM) and the MBC (P. aeruginosa PA10; [2]) was 32 µg/mL (≈ 13.7 µM). It also gave an MIC (P. aeruginosa PA14; [1]) of 16 µg/mL (≈ 6.83 µM), an MBC (P. aeruginosa PA14; [2]) of 32 µg/mL (≈ 13.7 µM) and an MIC (P. aeruginosa PA21; [1]) of 16 µg/mL (≈ 6.83 µM). The MBC (P. aeruginosa PA21; [2]) was 32 µg/mL (≈ 13.7 µM), the MIC (P. aeruginosa PA22; [1]) was 4 µg/mL (≈ 1.71 µM) and the MBC (P. aeruginosa PA22; [2]) was 32 µg/mL (≈ 13.7 µM). It also gave an MIC (P. aeruginosa PA31; [1]) of 16 µg/mL (≈ 6.83 µM), an MBC (P. aeruginosa PA31; [2]) of 32 µg/mL (≈ 13.7 µM) and an MIC (P. aeruginosa RP73; [1]) of 4 µg/mL (≈ 1.71 µM). The MBC (P. aeruginosa RP73; [2]) was 8 µg/mL (≈ 3.42 µM), the MIC (S. maltophilia SM103; [1]) was 4 µg/mL (≈ 1.71 µM) and the MBC (S. maltophilia SM103; [2]) was 4 µg/mL (≈ 1.71 µM). The MIC (S. maltophilia SM105; [1]) was 8 µg/mL (≈ 3.42 µM), the MBC (S. maltophilia SM105; [2]) was 8 µg/mL (≈ 3.42 µM) and the MIC (S. maltophilia SM106; [1]) was 32 µg/mL (≈ 13.7 µM). It also gave an MBC (S. maltophilia SM106; [2]) of 32 µg/mL (≈ 13.7 µM), an MIC (S. maltophilia SM110; [1]) of 4 µg/mL (≈ 1.71 µM) and an MBC (S. maltophilia SM110; [2]) of 4 µg/mL (≈ 1.71 µM). It also gave an MIC (S. maltophilia SM120; [1]) of 8 µg/mL (≈ 3.42 µM), an MBC (S. maltophilia SM120; [2]) of 16 µg/mL (≈ 6.83 µM) and an MIC (S. maltophilia SM122; [1]) of 16 µg/mL (≈ 6.83 µM). For the same compound, the MBC (S. maltophilia SM122; [2]) was 16 µg/mL (≈ 6.83 µM), the MIC (S. maltophilia SM123; [1]) was 16 µg/mL (≈ 6.83 µM) and the MBC (S. maltophilia SM123; [2]) was 16 µg/mL (≈ 6.83 µM). The MIC (S. maltophilia SM126; [1]) was 16 µg/mL (≈ 6.83 µM), the MBC (S. maltophilia SM126; [2]) was 32 µg/mL (≈ 13.7 µM) and the MIC (S. maltophilia SM130; [1]) was 8 µg/mL (≈ 3.42 µM). It also gave an MBC (S. maltophilia SM130; [2]) of 16 µg/mL (≈ 6.83 µM), an MIC (S. maltophilia SM136; [1]) of 8 µg/mL (≈ 3.42 µM) and an MBC (S. maltophilia SM136; [2]) of 16 µg/mL (≈ 6.83 µM). It also gave an MIC (S. maltophilia SM139; [1]) of 8 µg/mL (≈ 3.42 µM), an MBC (S. maltophilia SM139; [2]) of 8 µg/mL (≈ 3.42 µM) and an MIC (S. maltophilia SM143; [1]) of 8 µg/mL (≈ 3.42 µM). The MBC (S. maltophilia SM143; [2]) was 8 µg/mL (≈ 3.42 µM), the MIC90 (P. aeruginosa) was 16 µg/mL (≈ 6.83 µM) and the MIC90 (S. maltophilia) was 16 µg/mL (≈ 6.83 µM).
